{
  "source": "patent US20100167261A1",
  "about": "“PLATELET STABILIZATION” (SIEMENS HEALTHCARE DIAGNOSTICS INC., priority 2006, published 2010)",
  "format_in_all_cases": "cell-based",
  "key": {"platelets [1]": {"system": "platelets", "test": "morphometric evaluation of α-granules per platelet and platelet morphology, electron microscopy", "experimental": "(§1) Blood from healthy controls were also collected into Vacutainer® K3E 4.5 mL K3EDTA sample collection tubes (Cat. No. 367654, Becton, Dickinson and Company, Franklin Lakes, N.J.) and combined with the remaining STABILE-1 reagents (citrate-phosphate-dextrose, wortmanin, tyrphostin) to yield the prescribed concentrations. […] Mean platelet component and mean platelet volume were assessed at 30 min, 6 hr, and 24 hr following blood collection/initial combination with storage reagents using the ADVIA® 2120 system (Bayer AG, Leverkusen, Germany). Flow cytometry techniques were used to identify platelet activation proteins, and the impact of these strategies on ultrastructural morphology of platelets was morphometrically evaluated using electron microscopy (EM). The values obtained at t=0+30 (i.e., 30 min after blood collection and the initial combination with the storage reagents) were designated as baseline values to which values observed at t=6 hr and t=24 hr were compared."}, "[2]": {"system": "P-selectin (also known as CD62P)", "test": "P-selectin expression of stored platelets, flow cytometry", "conditions": "22° C., n = 8", "experimental": "as §1"}, "platelets [3]": {"system": "platelets", "conditions": "for MPV, increase in % vs 30 min baseline: n = 8; for mean platelet volume (MPV), Average: Table 4, stored at 22° C.", "experimental": "(§2) The samples were subjected to gently agitation, and were stored either at room temperature (22° C.) or at 4° C., and mean platelet component and mean platelet volume values were obtained at the designated time points using the ADVIA® 2120 system.\nBlood from healthy controls were also collected into Vacutainer® K3E 4.5 mL K3EDTA sample collection tubes (Cat. No. 367654, Becton, Dickinson and Company, Franklin Lakes, N.J.) and combined with the remaining STABILE-1 reagents (citrate-phosphate-dextrose, wortmanin, tyrphostin) to yield the prescribed concentrations. These samples were stored either at room temperature (22° C.) or at 4° C., and mean platelet component volume was assessed at the designated time points using the ADVIA® 2120 system.\nas §1, with “(EM).” for “(EM). The values obtained at t=0+30 (i.e., 30 min after blood collection and the initial combination with the storage reagents) were designated as baseline values to which values observed at t=6 hr and t=24 hr were compared.”"}, "platelets [4]": {"system": "platelets", "test": "morphometric evaluation of dense bodies per platelet, electron microscopy whole mounts", "conditions": "* = statistically significant at the 95% confidence level", "from_the_text": "In accordance with published methods, platelet whole mounts were viewed “by transparence”, i.e., while supported on polyvinal formal resin, and dense bodies were counted.\nThe plot depicts mean values with 95% LSD intervals."}, "platelets [5]": {"system": "platelets", "test": "mean platelet component (MPC) of stored blood samples, ADVIA 2120 Hematology System", "conditions": "for mean platelet component (MPC), Average: Table 1, stored at 22° C.", "experimental": "The ADVIA® 120 Hematology System is an automated analyzer that, in addition to measuring the conventional hematologic indices, also provides some activation-related information about platelets. Macey M G et al., Cytometry 38:250-55 (1999). It measures the intensity of light scattered by platelets at two different cone angles (2-3° and 5-15° and from the paired values computes platelet volume (PV) and platelet component (PC) concentration on a cell-by-cell basis. These values are then averaged to provide the Mean Platelet Component (MPC).\nas §2\nBlood from healthy controls were also collected into Vacutainer® K3E 4.5 mL K3EDTA sample collection tubes (Cat. No. 367654, Becton, Dickinson and Company, Franklin Lakes, N.J.) and combined with the remaining STABILE-1 reagents (citrate-phosphate-dextrose, wortmanin, tyrphostin) to yield the prescribed concentrations. These samples were stored either at room temperature (22° C.) or at 4° C., and mean platelet component values were obtained at the designated time points using the ADVIA® 2120 system.\nas §1\nBlood from healthy controls were carefully collected, and mean platelet component was assessed upon combination of blood with the respective storage reagents, using the ADVIA® 2120 system (Bayer AG, Leverkusen, Germany), and again at 1 hr, 3 hr, 6 hr, and 24 hr following the initial combination with storage reagents. All samples were stored at room temperature (22° C.).\nExperiments were conducted in order to assess the effect of varying the concentration of the citrate-phosphate-dextrose component in the STABILE-1 storage medium on the mean platelet component. Blood from healthy controls were carefully collected, and mean platelet component was assessed upon combination of blood with the respective storage reagents, using the ADVIA® 2120 system (Bayer AG, Leverkusen, Germany), and again at 1 hr, 3 hr, 6 hr, and 24 hr following the initial combination with storage reagents. All samples were stored at room temperature (22° C.)."}},
  "note": "Where two headings read alike, the source gives them in different places.",
  "data": [
    {"compound": "O=C(O)CN(CCN(CC(=O)O)CC(=O)O)CC(=O)O", "note": "[EDTA, Ethylenediaminetetraacetic acid]", "values": [
      {"measurement": "number of α-granules per platelet section", "setting": "platelets [1]; 6 h", "value": "6.4±2.3"},
      {"measurement": "number of α-granules per platelet section", "setting": "platelets [1]; 24 h", "value": "3.5±1.4"},
      {"measurement": "number of α-granules per platelet as compared with t=0", "setting": "platelets [1]; FIG. 4A, six hours of storage, 22° C.", "value": "statistical reduction"},
      {"measurement": "number of α-granules per platelet section", "setting": "platelets [1]; baseline", "value": "12.3±6.07"},
      {"measurement": "P-selectin, % of positive platelets", "setting": "[2]; 30 min (baseline)", "value": 2.1, "unit": "%"},
      {"measurement": "P-selectin, % of positive platelets", "setting": "[2]; 6 hours", "value": 13.9, "unit": "%"},
      {"measurement": "P-selectin, % of positive platelets", "setting": "[2]; 24 hours", "value": 40.8, "unit": "%"},
      {"measurement": "MPV", "setting": "platelets [3]", "value": "8.3 ± 0.2", "unit": "fL"},
      {"measurement": "increase of MPV values", "setting": "platelets [3]; 5.5 hours after baseline, 22° C.", "value": 10.2, "unit": "%"},
      {"measurement": "MPV, increase in % vs 30 min baseline", "setting": "platelets [3]; 6 hours, 22° C.", "value": "+10.2%"},
      {"measurement": "MPV, increase in % vs 30 min baseline", "setting": "platelets [3]; 24 hours, 22° C.", "value": "+23%"},
      {"measurement": "mean platelet volume (MPV), Average", "setting": "platelets [3]; 0 min, n 12", "value": 8.36},
      {"measurement": "mean platelet volume (MPV), Average", "setting": "platelets [3]; 30 min, n 15", "value": 8.41},
      {"measurement": "mean platelet volume (MPV), Average", "setting": "platelets [3]; 1 h, n 15", "value": 8.65},
      {"measurement": "mean platelet volume (MPV), Average", "setting": "platelets [3]; 3 h, n 15", "value": 9.22},
      {"measurement": "mean platelet volume (MPV), Average", "setting": "platelets [3]; 6 h, n 15", "value": 9.53},
      {"measurement": "mean platelet volume (MPV), Average", "setting": "platelets [3]; 24 h, n 15", "value": 10.63},
      {"measurement": "increase in the mean platelet volume", "setting": "platelets [3]; six hours after initial combination (t=0), storage at 22° C., Tables 4 and 5", "value": "~12", "unit": "%"},
      {"measurement": "Difference, mean number of dense bodies per platelet", "setting": "platelets [4]; Contrast EDTA 0 hr vs. stored 1 hr", "value": "−1.26*"},
      {"measurement": "Difference, mean number of dense bodies per platelet", "setting": "platelets [4]; Contrast EDTA 0 hr vs. stored 24 hr", "value": "2.1*"},
      {"measurement": "Difference, mean number of dense bodies per platelet", "setting": "platelets [4]; Contrast EDTA 1 hr vs. EDTA 6 hr", "value": "1.9*"},
      {"measurement": "MPC", "setting": "platelets [5]; 30 min (baseline), 22° C., n = 8", "value": "259 ± 6.6", "unit": "g/L"},
      {"measurement": "MPC, reduction in % vs 30 min baseline", "setting": "platelets [5]; 6 hours, 22° C., n = 8", "value": "−9", "unit": "%"},
      {"measurement": "MPC, reduction in % vs 30 min baseline", "setting": "platelets [5]; 24 hours, 22° C., n = 8", "value": "−21", "unit": "%"},
      {"measurement": "mean platelet component (MPC), Average", "setting": "platelets [5]; 0 min, n 12", "value": 260.83},
      {"measurement": "mean platelet component (MPC), Average", "setting": "platelets [5]; 30 min, n 15", "value": 258.07},
      {"measurement": "mean platelet component (MPC), Average", "setting": "platelets [5]; 1 h, n 15", "value": 252.00},
      {"measurement": "mean platelet component (MPC), Average", "setting": "platelets [5]; 3 h, n 15", "value": 239.07},
      {"measurement": "mean platelet component (MPC), Average", "setting": "platelets [5]; 6 h, n 15", "value": 229.87},
      {"measurement": "mean platelet component (MPC), Average", "setting": "platelets [5]; 24 h, n 15", "value": 201.07},
      {"measurement": "mean platelet component", "setting": "platelets [5]; Table 8, 0, stored at room temperature (22° C.)", "value": 278},
      {"measurement": "mean platelet component", "setting": "platelets [5]; Table 8, 1 hr, stored at room temperature (22° C.)", "value": 273},
      {"measurement": "mean platelet component", "setting": "platelets [5]; Table 8, 3 hr, stored at room temperature (22° C.)", "value": 265},
      {"measurement": "mean platelet component", "setting": "platelets [5]; Table 8, 6 hr, stored at room temperature (22° C.)", "value": 268},
      {"measurement": "mean platelet component", "setting": "platelets [5]; Table 8, 24 hr, stored at room temperature (22° C.)", "value": 233},
      {"measurement": "mean platelet component", "setting": "platelets [5]; Table 10, 0, stored at room temperature (22° C.)", "value": 258},
      {"measurement": "mean platelet component", "setting": "platelets [5]; Table 10, 1 hr, stored at room temperature (22° C.)", "value": 247},
      {"measurement": "mean platelet component", "setting": "platelets [5]; Table 10, 3 hr, stored at room temperature (22° C.)", "value": 235},
      {"measurement": "mean platelet component", "setting": "platelets [5]; Table 10, 6 hr, stored at room temperature (22° C.)", "value": 225},
      {"measurement": "mean platelet component", "setting": "platelets [5]; Table 10, 24 hr, stored at room temperature (22° C.)", "value": 190},
      {"measurement": "mean platelet component", "setting": "platelets [5]; Table 11, 0, stored at room temperature (22° C.)", "value": 288},
      {"measurement": "mean platelet component", "setting": "platelets [5]; Table 11, 1 hr, stored at room temperature (22° C.)", "value": 282},
      {"measurement": "mean platelet component", "setting": "platelets [5]; Table 11, 3 hr, stored at room temperature (22° C.)", "value": 271},
      {"measurement": "mean platelet component", "setting": "platelets [5]; Table 11, 6 hr, stored at room temperature (22° C.)", "value": 269},
      {"measurement": "mean platelet component", "setting": "platelets [5]; Table 11, 24 hr, stored at room temperature (22° C.)", "value": 227},
      {"measurement": "decrease in the mean platelet component", "setting": "platelets [5]; six hours after initial combination (t=0), storage at 22° C., Tables 1 and 2", "value": "~12", "unit": "%"},
      {"measurement": "decrease of MPC values", "setting": "platelets [5]; t=5.5 hr after baseline measurements, room temperature / 22° C.", "value": 9, "unit": "%"}
    ]}
  ]
}
